Measurements: ChEMBL document CHEMBL1151200, “Comparison of fascaplysin and related alkaloids: a study of structures, cytotoxicities, and sources” (J Nat Prod, 2004)

Assays:
[1] = system: L1210; experiment: Cytotoxicity against mouse L1210 cells at 84 ug/disk by disk diffusion soft agar colony formation assay; format: functional
[2] = system: MC-38; experiment: Cytotoxicity against mouse C38 cells at 84 ug/disk by disk diffusion soft agar colony formation assay; format: functional
[3] = Cytotoxicity against mouse CFU-GM cells at 84 ug/disk by disk diffusion soft agar colony formation assay; format: cell-based
[4] = Cytotoxicity against human H116 cells at 84 ug/disk by disk diffusion soft agar colony formation assay; format: functional
[5] = Cytotoxicity against human H125 cells at 84 ug/disk by disk diffusion soft agar colony formation assay; format: functional
[6] = system: CCRF-CEM; experiment: Cytotoxicity against human CEM cells at 84 ug/disk by disk diffusion soft agar colony formation assay; format: functional
[7] = system: A549; experiment: Antitumor activity against human A549/ATCC cells; format: functional, cell-based
[8] = system: EKVX; experiment: Antitumor activity against human EKVX cells; format: functional, cell-based
[9] = system: HOP-62; experiment: Antitumor activity against human HOP62 cells; format: functional, cell-based
[10] = system: HOP-92; experiment: Antitumor activity against human HOP92 cells; format: functional, cell-based
[11] = system: NCI-H226; experiment: Antitumor activity against human NCI-H226 cells; format: functional, cell-based
[12] = system: NCI-H23; experiment: Antitumor activity against human NCI-H23 cells; format: functional, cell-based
[13] = system: NCI-H322M; experiment: Antitumor activity against human NCI-H322M cells; format: functional, cell-based
[14] = system: NCI-H460; experiment: Antitumor activity against human NCI-H460 cells; format: functional, cell-based
[15] = system: NCI-H522; experiment: Antitumor activity against human NCI-H522 cells; format: functional, cell-based
[16] = system: COLO 205; experiment: Antitumor activity against human COLO205 cells; format: functional, cell-based
[17] = system: HCC 2998; experiment: Antitumor activity against human HCC2998 cells; format: functional, cell-based
[18] = system: HCT-116; experiment: Antitumor activity against human HCT116 cells; format: functional, cell-based
[19] = system: HCT-15; experiment: Antitumor activity against human HCT15 cells; format: functional, cell-based
[20] = system: HT-29; experiment: Antitumor activity against human HT-29 cells; format: functional, cell-based
[21] = system: KM12; experiment: Antitumor activity against human KM12 cells; format: functional, cell-based
[22] = system: SW-620; experiment: Antitumor activity against human SW620 cells; format: functional, cell-based
[23] = system: SF-268; experiment: Antitumor activity against human SF268 cells; format: functional, cell-based
[24] = system: SF-295; experiment: Antitumor activity against human SF295 cells; format: functional, cell-based
[25] = system: SF-539; experiment: Antitumor activity against human SF539 cells; format: functional, cell-based
[26] = system: SNB-19; experiment: Antitumor activity against human SNB19 cells; format: functional, cell-based
[27] = system: SNB-75; experiment: Antitumor activity against human SNB75 cells; format: functional, cell-based
[28] = system: U-251; experiment: Antitumor activity against human U251 cells; format: functional, cell-based
[29] = system: LOX IMVI; experiment: Antitumor activity against human LOXIMVI cells; format: functional, cell-based
[30] = system: Malme-3M; experiment: Antitumor activity against human MALME-3M cells; format: functional, cell-based
[31] = system: M14; experiment: Antitumor activity against human M14 cells; format: functional, cell-based
[32] = system: SK-MEL-28; experiment: Antitumor activity against human SK-MEL-28 cells; format: functional, cell-based
[33] = system: SK-MEL-5; experiment: Antitumor activity against human SK-MEL-5 cells; format: functional, cell-based
[34] = system: UACC-257; experiment: Antitumor activity against human UACC257 cells; format: functional, cell-based
[35] = system: UACC-62; experiment: Antitumor activity against human UACC62 cells; format: functional, cell-based
[36] = system: IGROV-1; experiment: Antitumor activity against human IGROV1 cells; format: functional, cell-based
[37] = system: OVCAR-3; experiment: Antitumor activity against human OVCAR-3 cells; format: functional, cell-based
[38] = system: OVCAR-4; experiment: Antitumor activity against human OVCAR4 cells; format: functional, cell-based
[39] = system: OVCAR-5; experiment: Antitumor activity against human OVCAR5 cells; format: functional, cell-based
[40] = system: OVCAR-8; experiment: Antitumor activity against human OVCAR8 cells; format: functional, cell-based
[41] = system: SK-OV-3; experiment: Antitumor activity against human SKOV3 cells; format: functional, cell-based
[42] = Antitumor activity against human 786-O cells; format: functional, cell-based; conditions: 786-0
[43] = system: ACHN; experiment: Antitumor activity against human ACHN cells; format: functional, cell-based
[44] = system: CAKI-1; experiment: Antitumor activity against human Caki1 cells; format: functional, cell-based
[45] = system: RXF 393; experiment: Antitumor activity against human RXF393 cells; format: functional, cell-based
[46] = system: SN12C; experiment: Antitumor activity against human SN12C cells; format: functional, cell-based
[47] = system: TK-10; experiment: Antitumor activity against human TK10 cells; format: functional, cell-based
[48] = system: UO-31; experiment: Antitumor activity against human UO31 cells; format: functional, cell-based
[49] = system: PC-3; experiment: Antitumor activity against human PC3 cells; format: functional, cell-based
[50] = system: DU-145; experiment: Antitumor activity against human DU145 cells; format: functional, cell-based
[51] = system: MCF7; experiment: Antitumor activity against human MCF7 cells; format: functional, cell-based
[52] = system: MCF7; experiment: Antitumor activity against […] human MCF7 cells; format: functional, cell-based
[53] = system: MDA-MB-231; experiment: Antitumor activity against human MDA-MB-231 cells; format: functional, cell-based
[54] = Antitumor activity against human Hs 578T cells; format: functional, cell-based
[55] = system: MDA-MB-435; experiment: Antitumor activity against human MDA-MB-435 cells; format: functional, cell-based
[56] = system: MDA-N; experiment: Antitumor activity against human MDA-N cells; format: functional, cell-based
[57] = system: BT-549; experiment: Antitumor activity against human BT549 cells; format: functional, cell-based
[58] = system: T47D; experiment: Antitumor activity against human T47D cells; format: functional, cell-based
[59] = system: CCRF-CEM; experiment: Antitumor activity against human CCRF-CEM cells; format: functional, cell-based
[60] = system: HL-60(TB); experiment: Antitumor activity against human HL-60(TB) cells; format: functional, cell-based
[61] = system: K562; experiment: Antitumor activity against human K562 cells; format: functional, cell-based
[62] = system: MOLT-4; experiment: Antitumor activity against human MOLT4 cells; format: functional, cell-based
[63] = system: RPMI-8226; experiment: Antitumor activity against human RPMI8226 cells; format: functional, cell-based
[64] = system: SR; experiment: Antitumor activity against human SR cells; format: functional, cell-based
[65] = system: L1210; experiment: Cytotoxicity against mouse L1210 cells at 64 ug/disk by disk diffusion soft agar colony formation assay; format: functional
[66] = system: MC-38; experiment: Cytotoxicity against mouse C38 cells at 64 ug/disk by disk diffusion soft agar colony formation assay; format: functional
[67] = Cytotoxicity against human H116 cells at 64 ug/disk by disk diffusion soft agar colony formation assay; format: functional
[68] = Cytotoxicity against human H125 cells at 64 ug/disk by disk diffusion soft agar colony formation assay; format: functional
[69] = system: CCRF-CEM; experiment: Cytotoxicity against human CEM cells at 64 ug/disk by disk diffusion soft agar colony formation assay; format: functional
[70] = system: L1210; experiment: Cytotoxicity against mouse L1210 cells at 18 ug/disk by disk diffusion soft agar colony formation assay; format: functional
[71] = system: MC-38; experiment: Cytotoxicity against mouse C38 cells at 18 ug/disk by disk diffusion soft agar colony formation assay; format: functional
[72] = Cytotoxicity against mouse CFU-GM cells at 18 ug/disk by disk diffusion soft agar colony formation assay; format: cell-based
[73] = Cytotoxicity against human H116 cells at 18 ug/disk by disk diffusion soft agar colony formation assay; format: functional
[74] = Cytotoxicity against human H125 cells at 18 ug/disk by disk diffusion soft agar colony formation assay; format: functional
[75] = system: CCRF-CEM; experiment: Cytotoxicity against human CEM cells at 18 ug/disk by disk diffusion soft agar colony formation assay; format: functional

COC(=O)c1ccc(Br)cc1-[n+]1ccc2c(c1)[nH]c1cc(Br)ccc12.[Cl-]
Activity [1]: 450 Zone units
Activity [2]: 350 Zone units
Activity [3]: 400 Zone units
Activity [4]: 300 Zone units
Activity [5]: 500 Zone units
Activity [6]: 300 Zone units

CC1=C(CC/C(C)=C/CC/C(C)=C/CCC(CC(=O)O)C(=O)[O-])C(C)(C)CCC1.O=C1c2ccccc2-[n+]2ccc3c([nH]c4ccccc43)c21 (stereo not given) [FASCAPLYSIN A]
IC50 [7]: 7.6 µM
IC50 [8]: 5.2 µM
IC50 [9]: 5.1 µM
IC50 [10]: 1 µM
IC50 [11]: 8.3 µM
IC50 [12]: 5.1 µM
IC50 [13]: 4.3 µM
IC50 [14]: 6.4 µM
IC50 [15]: 6.3 µM
IC50 [16]: 0.83 µM
IC50 [17]: 3.8 µM
IC50 [18]: 1.6 µM
IC50 [19]: 5.8 µM
IC50 [20]: 1.4 µM
IC50 [21]: 7.3 µM
IC50 [22]: 3.9 µM
IC50 [23]: 5.7 µM
IC50 [24]: 5.2 µM
IC50 [25]: 2.2 µM
IC50 [26]: 5.4 µM
IC50 [27]: 5.2 µM
IC50 [28]: 4.1 µM
IC50 [29]: 6.3 µM
IC50 [30]: 0.54 µM
IC50 [31]: 4.2 µM
IC50 [32]: 3.9 µM
IC50 [33]: 0.53 µM
IC50 [34]: 3.8 µM
IC50 [35]: 3.2 µM
IC50 [36]: 1.7 µM
IC50 [37]: 3.1 µM
IC50 [38]: 4.5 µM
IC50 [39]: 5.8 µM
IC50 [40]: 5.3 µM
IC50 [41]: 7.7 µM
IC50 [42]: 5.1 µM
IC50 [43]: 5.5 µM
IC50 [44]: 7.3 µM
IC50 [45]: 3.5 µM
IC50 [46]: 3.2 µM
IC50 [47]: > 10 µM
IC50 [48]: 5.6 µM
IC50 [49]: 5.4 µM
IC50 [50]: 5.6 µM
IC50 [51]: 5 µM
IC50 [52]: > 10 µM
IC50 [53]: 6.8 µM
IC50 [54]: > 10 µM
IC50 [55]: 0.57 µM
IC50 [56]: 0.58 µM
IC50 [57]: 5.1 µM
IC50 [58]: 6.6 µM
IC50 [59]: > 10 µM
IC50 [60]: > 10 µM
IC50 [61]: > 10 µM
IC50 [62]: > 10 µM
IC50 [63]: > 10 µM
IC50 [64]: > 10 µM

O=C(O)c1ccccc1-[n+]1ccc2c(c1)[nH]c1ccccc12.[Cl-] [RETICULATATE]
Activity [65]: 650 Zone units
Activity [66]: 700 Zone units
Activity [67]: 650 Zone units
Activity [68]: 500 Zone units
Activity [69]: 350 Zone units

COC(=O)c1ccccc1-[n+]1ccc2c(c1)[nH]c1ccccc12.[Cl-] [RETICULATINE]
Activity [70]: 450 Zone units
Activity [71]: 600 Zone units
Activity [72]: 350 Zone units
Activity [73]: 500 Zone units
Activity [74]: 600 Zone units
Activity [75]: 500 Zone units

Oc1ccccc1-[n+]1ccc2c(c1)[nH]c1ccccc12.[Cl-] [RETICULATOL]
Activity [65]: 200 Zone units
Activity [66]: 200 Zone units
Activity [67]: 100 Zone units
Activity [68]: 400 Zone units
Activity [69]: >1000 Zone units
